From US20240300958A1, “COMPOUNDS AND THE USES AND PHARMACEUTICAL COMPOSITIONS THEREOF” (BEIJING YOUZHUJU NETWORK TECHNOLOGY CO. LTD., priority 2023, published 2024)
Read-outs that look alike come from different tables or passages of the source.

Experiments:
Test in all cases: Kinase inhibition profile (HTRF / ADP Glo kinase assay)
Format in all cases: biochemical
AurB = AurB (Homo sapiens (Human), UniProt Q96GD4)
Description: (§1) HTRF kinase assay: 2×ATP and substrate solution as well as 2× kinase and metal solution were prepared with assay buffer. 25 nL of compound was transferred to 384-well assay plate by Echo 655. After centrifugation, 2.5 μL of 2× kinase/metal ion solution was added to the 384-well assay plate followed by incubation at 25° C. for 10 min. 2.5 μL of 2× substrate and ATP solution was added to the wells followed by incubation at 25° C. for 60 min. 2× XL665 and antibody solution was prepared with assay buffer. 5 μL of kinase detection reagent was added to the wells followed by incubation at 25° C. for 60 min. Fluorescence signals at 620 nm (Cryptate) and 665 nm (XL665) were read with a microtiter plate reader. ADP Glo kinase assay: 2×ATP and substrate solution as well as 2× kinase and metal solution were prepared with assay buffer. 20 nL of compound was transferred to 384-well assay plate by Echo 655. 2 μL of 2× kinase/metal ion solution was added followed by incubation at 25° C. for 10 min in the 384-well assay plate. 2 μL of 2× substrate and ATP solution was added to the wells followed by incubation at 25° C. for 60 min. 4 μL of ADP Glo reagent was added to the wells followed by incubation at 25° C. for 40 min. 8 μL of kinase test reagent was added to the wells followed by incubation at 25° C. for 40 min. The luminescence signals were recorded on a microtiter plate reader. Data analysis: the reaction control (0.5% DMSO) reading was set to 0% inhibition, and the background (10 μM positive control) reading was set to 100% inhibition, then the percent inhibition for each test solution was calculated and the results are shown in Table 2 and FIG. 3.

BRAF = BRAF (Homo sapiens (Human), UniProt P15056)
Description: as §1

BRSK2 = BRSK2 (Homo sapiens (Human), UniProt Q8IWQ3)
Description: as §1

CDK18/CyclinY = CDK18/CyclinY (Homo sapiens (Human), UniProt Q07002)
Description: as §1

CK2α1/β = CK2α1/β (Homo sapiens (Human), UniProt P68400)
Description: as §1

CLK1 = CLK1 (Homo sapiens (Human), UniProt P49759)
Description: as §1

DDR1 = DDR1 (Homo sapiens (Human), UniProt Q08345); conditions: for inhibition at 1 µM: 1 uM Compound C1, DDR1
Description: as §1

DYRK1B = DYRK1B (Homo sapiens (Human), UniProt Q9Y463)
Description: as §1

HIPK1 = HIPK1 (Homo sapiens (Human), UniProt Q86Z02)
Description: as §1

HPK1 = HPK1 (Homo sapiens (Human), UniProt Q92918)
Description: as §1

IKKα = IKKα (Homo sapiens (Human), UniProt O15111)
Description: as §1

JAK3 = JAK3 (Homo sapiens (Human), UniProt P52333)
Description: as §1

JNK1 = JNK1 (Homo sapiens (Human), UniProt P45983)
Description: as §1

JNK2 = JNK2 (Homo sapiens (Human), UniProt P45984)
Description: as §1

MAP2K1 = MAP2K1 (Homo sapiens (Human), UniProt Q02750)
Description: as §1

MET = MET (Homo sapiens (Human), UniProt P08581)
Description: as §1

NEK1 = NEK1 (Homo sapiens (Human), UniProt Q96PY6)
Description: as §1

PIM1 = PIM1 (Homo sapiens (Human), UniProt P11309)
Description: as §1

RSK1 = RSK1 (Homo sapiens (Human), UniProt Q15418)
Description: as §1

TRKB = TRKB (Homo sapiens (Human), UniProt Q16620)
Description: as §1

p70S6K = p70S6K (Homo sapiens (Human), UniProt P23443)
Description: as §1

[1] = 1 uM Compound C1, read-out: % Inhibition (First measurement)
[2] = 1 uM Compound C1, read-out: % Inhibition (Second measurement)
[3] = 1 uM Compound C1, read-out: Average inhibition (%)

Sequence of BRAF (P15056 whole entry, species assumed): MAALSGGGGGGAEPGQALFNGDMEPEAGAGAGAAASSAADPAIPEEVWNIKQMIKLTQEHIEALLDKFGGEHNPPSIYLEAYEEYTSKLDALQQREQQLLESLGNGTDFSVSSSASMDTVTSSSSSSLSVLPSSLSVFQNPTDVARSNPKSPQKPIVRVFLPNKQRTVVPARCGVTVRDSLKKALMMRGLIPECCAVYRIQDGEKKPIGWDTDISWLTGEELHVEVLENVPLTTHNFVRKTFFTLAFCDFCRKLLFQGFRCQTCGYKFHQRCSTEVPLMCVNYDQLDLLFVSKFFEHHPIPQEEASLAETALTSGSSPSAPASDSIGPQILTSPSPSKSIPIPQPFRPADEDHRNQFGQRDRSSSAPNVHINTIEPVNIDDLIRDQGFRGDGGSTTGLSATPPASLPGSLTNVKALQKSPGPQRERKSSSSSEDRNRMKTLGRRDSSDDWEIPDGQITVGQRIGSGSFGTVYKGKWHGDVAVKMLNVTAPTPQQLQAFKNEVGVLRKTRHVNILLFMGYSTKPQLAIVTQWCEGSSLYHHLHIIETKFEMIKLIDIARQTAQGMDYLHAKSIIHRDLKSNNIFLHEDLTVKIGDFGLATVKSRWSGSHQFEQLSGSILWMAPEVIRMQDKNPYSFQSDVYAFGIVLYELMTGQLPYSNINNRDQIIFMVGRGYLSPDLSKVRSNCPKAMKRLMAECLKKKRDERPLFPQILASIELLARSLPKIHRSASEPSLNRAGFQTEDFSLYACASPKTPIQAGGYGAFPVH
Sequence of PIM1 (P11309 whole entry, species assumed): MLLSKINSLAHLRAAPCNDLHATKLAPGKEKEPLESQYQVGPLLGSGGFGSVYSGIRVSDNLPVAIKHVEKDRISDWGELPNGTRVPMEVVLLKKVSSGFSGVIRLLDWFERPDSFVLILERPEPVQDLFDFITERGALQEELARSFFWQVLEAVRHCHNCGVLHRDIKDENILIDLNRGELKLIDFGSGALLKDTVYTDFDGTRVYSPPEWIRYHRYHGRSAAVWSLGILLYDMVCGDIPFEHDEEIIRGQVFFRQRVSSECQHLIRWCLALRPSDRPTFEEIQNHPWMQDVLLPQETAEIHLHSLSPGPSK
Sequence of p70S6K (P23443 whole entry): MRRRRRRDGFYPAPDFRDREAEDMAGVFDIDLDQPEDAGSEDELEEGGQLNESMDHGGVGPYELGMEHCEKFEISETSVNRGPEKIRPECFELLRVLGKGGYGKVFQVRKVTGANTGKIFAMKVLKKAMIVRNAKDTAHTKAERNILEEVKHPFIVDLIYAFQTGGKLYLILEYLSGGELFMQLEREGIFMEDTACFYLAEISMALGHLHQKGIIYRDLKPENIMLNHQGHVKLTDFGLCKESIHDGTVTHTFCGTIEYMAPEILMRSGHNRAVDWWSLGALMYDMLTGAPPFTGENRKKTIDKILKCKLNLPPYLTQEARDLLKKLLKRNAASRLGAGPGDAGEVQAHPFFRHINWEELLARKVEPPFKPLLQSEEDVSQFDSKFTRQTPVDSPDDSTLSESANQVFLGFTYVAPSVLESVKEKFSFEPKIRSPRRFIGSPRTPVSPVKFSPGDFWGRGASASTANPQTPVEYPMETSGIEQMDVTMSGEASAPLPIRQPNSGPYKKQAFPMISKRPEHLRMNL
Sequence of HPK1 (Q92918 whole entry, species assumed): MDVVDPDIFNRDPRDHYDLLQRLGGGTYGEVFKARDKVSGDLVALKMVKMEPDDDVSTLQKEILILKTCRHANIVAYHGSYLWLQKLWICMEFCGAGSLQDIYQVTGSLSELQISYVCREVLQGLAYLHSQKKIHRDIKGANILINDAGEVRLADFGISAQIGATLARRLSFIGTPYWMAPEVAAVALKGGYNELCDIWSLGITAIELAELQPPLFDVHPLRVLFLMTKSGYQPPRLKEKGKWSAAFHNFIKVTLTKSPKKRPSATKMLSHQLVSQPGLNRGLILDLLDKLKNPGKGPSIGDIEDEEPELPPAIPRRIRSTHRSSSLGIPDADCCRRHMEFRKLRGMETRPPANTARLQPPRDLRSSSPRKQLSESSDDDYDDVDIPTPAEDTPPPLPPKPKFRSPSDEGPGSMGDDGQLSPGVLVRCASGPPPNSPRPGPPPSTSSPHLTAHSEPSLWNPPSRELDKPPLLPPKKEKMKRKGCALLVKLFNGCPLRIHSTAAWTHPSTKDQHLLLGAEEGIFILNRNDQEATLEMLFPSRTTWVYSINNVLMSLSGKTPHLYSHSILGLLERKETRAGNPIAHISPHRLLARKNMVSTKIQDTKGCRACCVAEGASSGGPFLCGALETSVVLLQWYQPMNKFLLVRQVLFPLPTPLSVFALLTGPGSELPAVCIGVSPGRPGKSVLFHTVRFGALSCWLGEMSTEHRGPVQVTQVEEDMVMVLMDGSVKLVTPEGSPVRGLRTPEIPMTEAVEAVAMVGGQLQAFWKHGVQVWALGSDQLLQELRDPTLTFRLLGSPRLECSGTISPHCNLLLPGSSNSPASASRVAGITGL
Sequence of NEK1 (Q96PY6 whole entry, species assumed): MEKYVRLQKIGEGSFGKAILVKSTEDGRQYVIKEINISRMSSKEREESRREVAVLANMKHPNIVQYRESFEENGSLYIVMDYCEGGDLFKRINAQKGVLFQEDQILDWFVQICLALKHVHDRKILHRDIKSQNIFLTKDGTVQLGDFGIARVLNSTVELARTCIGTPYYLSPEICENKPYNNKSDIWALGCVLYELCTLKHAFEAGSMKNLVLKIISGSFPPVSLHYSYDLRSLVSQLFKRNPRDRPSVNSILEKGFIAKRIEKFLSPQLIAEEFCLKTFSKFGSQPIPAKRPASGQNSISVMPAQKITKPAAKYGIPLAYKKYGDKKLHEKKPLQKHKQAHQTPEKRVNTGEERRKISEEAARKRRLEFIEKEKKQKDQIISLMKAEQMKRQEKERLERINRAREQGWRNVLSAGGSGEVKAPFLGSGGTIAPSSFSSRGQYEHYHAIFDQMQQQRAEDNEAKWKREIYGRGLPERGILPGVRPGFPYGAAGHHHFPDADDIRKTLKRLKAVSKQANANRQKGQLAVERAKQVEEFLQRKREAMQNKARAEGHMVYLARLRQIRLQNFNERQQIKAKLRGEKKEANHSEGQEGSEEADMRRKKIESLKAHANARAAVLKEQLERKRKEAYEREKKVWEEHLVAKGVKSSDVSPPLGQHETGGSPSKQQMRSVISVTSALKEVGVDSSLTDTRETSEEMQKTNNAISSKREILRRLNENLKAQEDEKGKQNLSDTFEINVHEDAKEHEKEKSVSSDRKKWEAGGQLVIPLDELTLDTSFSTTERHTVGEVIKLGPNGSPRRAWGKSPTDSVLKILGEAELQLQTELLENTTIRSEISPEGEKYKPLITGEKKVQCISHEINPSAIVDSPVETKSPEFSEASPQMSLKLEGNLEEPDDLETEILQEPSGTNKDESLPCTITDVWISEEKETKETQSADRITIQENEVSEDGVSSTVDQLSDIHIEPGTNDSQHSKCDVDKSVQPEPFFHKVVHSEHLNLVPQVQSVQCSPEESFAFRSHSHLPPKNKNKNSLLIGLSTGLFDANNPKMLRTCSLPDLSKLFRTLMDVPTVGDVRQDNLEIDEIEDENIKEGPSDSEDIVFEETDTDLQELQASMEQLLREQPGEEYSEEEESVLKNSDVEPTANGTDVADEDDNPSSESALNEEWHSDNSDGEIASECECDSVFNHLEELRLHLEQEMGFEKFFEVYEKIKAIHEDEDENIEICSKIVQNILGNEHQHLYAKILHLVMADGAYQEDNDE
Sequence of CK2α1/β (P68400 whole entry): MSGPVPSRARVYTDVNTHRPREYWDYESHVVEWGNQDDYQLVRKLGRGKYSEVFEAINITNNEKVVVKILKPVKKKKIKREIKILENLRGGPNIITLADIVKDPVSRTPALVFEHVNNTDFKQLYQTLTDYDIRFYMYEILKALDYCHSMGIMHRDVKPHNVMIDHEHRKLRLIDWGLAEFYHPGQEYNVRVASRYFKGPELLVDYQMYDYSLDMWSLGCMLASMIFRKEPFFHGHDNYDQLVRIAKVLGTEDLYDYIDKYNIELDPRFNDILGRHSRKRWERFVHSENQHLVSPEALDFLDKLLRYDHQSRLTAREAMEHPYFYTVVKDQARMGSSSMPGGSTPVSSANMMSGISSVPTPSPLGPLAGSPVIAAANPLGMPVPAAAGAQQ
Sequence of CK2α1/β (P67870 whole entry partner): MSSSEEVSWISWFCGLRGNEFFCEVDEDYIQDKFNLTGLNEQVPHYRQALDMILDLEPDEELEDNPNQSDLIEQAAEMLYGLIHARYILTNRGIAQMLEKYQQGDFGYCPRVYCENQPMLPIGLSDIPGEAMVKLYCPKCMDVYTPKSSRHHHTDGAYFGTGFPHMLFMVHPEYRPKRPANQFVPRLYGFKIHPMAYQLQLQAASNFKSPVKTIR
Sequence of IKKα (O15111 whole entry, species assumed): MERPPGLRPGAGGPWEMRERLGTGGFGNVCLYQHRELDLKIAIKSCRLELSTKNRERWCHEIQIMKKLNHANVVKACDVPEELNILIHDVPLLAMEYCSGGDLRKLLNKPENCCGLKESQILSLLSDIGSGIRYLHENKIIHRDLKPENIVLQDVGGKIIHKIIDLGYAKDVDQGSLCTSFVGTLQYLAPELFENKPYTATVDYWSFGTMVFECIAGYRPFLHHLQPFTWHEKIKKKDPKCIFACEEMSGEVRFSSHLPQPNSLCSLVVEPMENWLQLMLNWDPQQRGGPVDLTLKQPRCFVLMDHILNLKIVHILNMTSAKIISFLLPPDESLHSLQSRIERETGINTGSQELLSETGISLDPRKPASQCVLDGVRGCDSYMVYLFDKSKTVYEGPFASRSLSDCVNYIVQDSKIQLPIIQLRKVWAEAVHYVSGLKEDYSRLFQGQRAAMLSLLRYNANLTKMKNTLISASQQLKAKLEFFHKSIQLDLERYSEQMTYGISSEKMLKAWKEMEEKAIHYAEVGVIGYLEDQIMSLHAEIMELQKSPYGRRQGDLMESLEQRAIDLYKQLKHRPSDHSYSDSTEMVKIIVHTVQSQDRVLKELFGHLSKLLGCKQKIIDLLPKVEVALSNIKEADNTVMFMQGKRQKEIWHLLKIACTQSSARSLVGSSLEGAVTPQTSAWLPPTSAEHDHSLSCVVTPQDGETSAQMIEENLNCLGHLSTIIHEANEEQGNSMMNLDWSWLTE

inhibition at 1 µM (AurB; [1]): 19.7%
inhibition at 1 µM (AurB; [2]): 13.3%
inhibition at 1 µM (AurB; [3]): 16.5%
inhibition at 1 µM (BRAF; [1]): -6.73%
inhibition at 1 µM (BRAF; [2]): -23.9%
inhibition at 1 µM (BRAF; [3]): -15.3%
inhibition at 1 µM (BRSK2; [1]): 0.46%
inhibition at 1 µM (BRSK2; [2]): -0.94%
inhibition at 1 µM (BRSK2; [3]): -0.24%
inhibition at 1 µM (CDK18/CyclinY; [1]): 18%
inhibition at 1 µM (CDK18/CyclinY; [2]): 2.55%
inhibition at 1 µM (CDK18/CyclinY; [3]): 10.3%
inhibition at 1 µM (CK2α1/β; [1]): -5.19%
inhibition at 1 µM (CK2α1/β; [2]): 5.01%
inhibition at 1 µM (CK2α1/β; [3]): -0.09%
inhibition at 1 µM (CLK1; [1]): 2.98%
inhibition at 1 µM (CLK1; [2]): 12.3%
inhibition at 1 µM (CLK1; [3]): 7.67%
inhibition at 1 µM (DDR1; read-out: % Inhibition (First measurement)): 99.4%
inhibition at 1 µM (DDR1; read-out: % Inhibition (Second measurement)): 99.1%
inhibition at 1 µM (DDR1; read-out: Average inhibition (%)): 99.3%
Selectivity of DDR1 inhibition in the kinase inhibition profile (in words) (DDR1; kinase panel): can inhibit DDR1 with higher selectivity
inhibition at 1 µM (DYRK1B; [1]): 4.14%
inhibition at 1 µM (DYRK1B; [2]): 9.03%
inhibition at 1 µM (DYRK1B; [3]): 6.58%
inhibition at 1 µM (HIPK1; [1]): 6.91%
inhibition at 1 µM (HIPK1; [2]): 4.17%
inhibition at 1 µM (HIPK1; [3]): 5.54%
inhibition at 1 µM (HPK1; [1]): 23.9%
inhibition at 1 µM (HPK1; [2]): 24.7%
inhibition at 1 µM (HPK1; [3]): 24.3%
inhibition at 1 µM (IKKα; [1]): -18%
inhibition at 1 µM (IKKα; [2]): -12.9%
inhibition at 1 µM (IKKα; [3]): -15.5%
inhibition at 1 µM (JAK3; [1]): -1.28%
inhibition at 1 µM (JAK3; [2]): 2.46%
inhibition at 1 µM (JAK3; [3]): 0.59%
inhibition at 1 µM (JNK1; [1]): 4.56%
inhibition at 1 µM (JNK1; [2]): 5.69%
inhibition at 1 µM (JNK1; [3]): 5.13%
inhibition at 1 µM (JNK2; [1]): 9.39%
inhibition at 1 µM (JNK2; [2]): 9.07%
inhibition at 1 µM (JNK2; [3]): 9.23%
inhibition at 1 µM (MAP2K1; [1]): -5.72%
inhibition at 1 µM (MAP2K1; [2]): -3.53%
inhibition at 1 µM (MAP2K1; [3]): -4.62%
inhibition at 1 µM (MET; [1]): -11.9%
inhibition at 1 µM (MET; [2]): -15.8%
inhibition at 1 µM (MET; [3]): -13.9%
inhibition at 1 µM (NEK1; [1]): 14.6%
inhibition at 1 µM (NEK1; [2]): 8.97%
inhibition at 1 µM (NEK1; [3]): 11.8%
inhibition at 1 µM (PIM1; [1]): -3.17%
inhibition at 1 µM (PIM1; [2]): -4.27%
inhibition at 1 µM (PIM1; [3]): -3.72%
inhibition at 1 µM (RSK1; [1]): 0.73%
inhibition at 1 µM (RSK1; [2]): -7.9%
inhibition at 1 µM (RSK1; [3]): -3.59%
inhibition at 1 µM (TRKB; [1]): 20.8%
inhibition at 1 µM (TRKB; [2]): 40.4%
inhibition at 1 µM (TRKB; [3]): 30.6%
inhibition at 1 µM (p70S6K; [1]): 0.46%
inhibition at 1 µM (p70S6K; [2]): -0.19%
inhibition at 1 µM (p70S6K; [3]): 0.14%
Structure (SMILES): Cc1ccc(C(=O)Nc2ccccn2)cc1C#Cc1cnc2cc(C3=CCCCC3)cnn12 [Compound C1, 3-{2-[7-(cyclohex-1-en-1-yl)imidazo[1,2-b]pyridazin-3-yl]ethynyl}-4-methyl-N-(pyridin-2-yl)benzamide]
